Measured values published in patent publication US12048708B2 (RHOSHAN PHARMACEUTICALS, INC., priority 2017, dated 2024).

Assays:
[1] = Lyophilization of aspirin with lysine from water, HPLC analysis; type: physicochemical; conditions: ASA with lysine in water, 50 mg/ml, pH 6.5, HPLC
Procedure: The pH of the solution was 4.5. We added an additional amount of lysine to raise the pH of the bulk solution to 6.5. When all the drug was dissolved, a clear solution was formed. […] The product, however, was not lyophilized properly. The lyophilized cake collapsed.

[2] = Bulk solution stability of ASA in TBA-water system; type: physicochemical; conditions: 80/20, 70/30 and 60/40 TBA/water solutions, 24-hour storage at ambient storage conditions
Procedure: For a robust lyophilization process, the drug should not degrade in the bulk solution for lyophilization for at least 24 hours.

[3] = pH of bulk and reconstituted solutions of ASA lyophilized with bases from TBA/water; type: physicochemical
Text: The pH of the solution was raised to 6.5 using 1N sodium hydroxide. Phase separation was observed, probably due to salting out of inorganic base from TBA/Water system. In the next trial, we first raised the pH of the solution to 5.0 using 1N sodium hydroxide, and then sodium phosphate, dibasic to raise the pH to 6.5. Sodium phosphate, dibasic was used for a better control of pH. Since we still observed phase separation it appears that inorganic bases or buffers may not be compatible with a 80% TBA/20% water system. We may require more water, for example, 70% TBA/30% water in the system to dissolve the alkalinizing agents.
Inorganic buffers such as sodium phosphate, dibasic, are not soluble in this solvent system.
The reconstituted solution pH was 4.71.
In the next trial, we investigated incorporation of […] to facilitate complete neutralization. […] Arginine was, then, slowly added to the slurry to neutralize aspirin. […] The apparent pH of the bulk solution was 6.49. 5 ml aliquots placed in flint vials and lyophilized. Upon completion of lyophilization, the content of vial was reconstituted with 5 ml of Water for Injection. […] The reconstituted solution pH was 4.8.
Based on the above studies, it was evident that larger amount of base is needed to neutralize ASA in the preferred solvent system. To incorporate more base in the bulk solution, we explored use of 60/40 TBA/water system as solvent for lyophilization. […] The apparent pH of the bulk solution was 6.31. […] The reconstituted solution pH was 4.41. […] We reconstituted the lyophile with 5 ml of buffer solution containing different concentrations of disodium phosphate.

[4] = test system: rabbit ear vein; experiment: IV irritation studies in rabbit ear vein; type: in vivo; conditions: ASA solution of different osmolalities (300 to 1300 mOsm/kg) injected in rabbit ear vein
Text: It is an unexpected discovery or finding.

[5] = Particle size distribution (Malvern Master sizer 2000, dry powder volume distribution); type: physicochemical; conditions: API used to make the batches
Text: Additionally, we have measured the particle size distribution of the lyophiles and API. The measurement of particle size (Malvern, Master sizer 2000) of all the samples were done by using dry powder volume distribution method.

[6] = cited from earlier work
[7] = test system: platelet aggregation; conditions: following oral dosing, oral tablet or capsule; cited from earlier work

Question: With o-acetylsalicylic acid [ASA] as the substance, how does the “ASA degraded during the lyophilization process” value [1] read?
Answer: The value was “about 40%”.

Question: And the “degradation in bulk solution” value [2]?
Answer: Its value is “No appreciable degradation”.

Question: What about the “apparent pH of the bulk solution” value ([3]; 2 g aspirin, 100 mg sodium hydroxide, about 1.6 g arginine in 100 ml 70/30 TBA/water) of the same substance?
Answer: Its value is 6.49.

Question: What about the “apparent pH of the bulk solution” value ([3]; 2 g of ASA and 400 mg sodium hydroxide in 100 ml 60/40 TBA/water) of the same substance?
Answer: The value was 6.31.

Question: What about the “reconstituted solution pH” value ([3]; lyophile of 2 g aspirin, 100 mg sodium hydroxide, about 1.6 g arginine per 100 ml 70/30 TBA/water, 5 ml aliquot reconstituted with 5 ml Water for Injection) of the same substance?
Answer: Its value is 4.8.

Question: What about the IV irritation [4] of the same substance?
Answer: Its IV irritation is “no irritation was observed”.

Question: And the “D50% (μm)” value [5]?
Answer: Its value is 92.9 μm.

Question: And the “D90% (μm)” value [5]?
Answer: Its value is 249.5 μm.

Question: What about the “D100% (μm)” value [5] of the same substance?
Answer: Its value is 431.0 μm.

Question: What about the aqueous solubility [6] of the same substance?
Answer: The aqueous solubility was “about 3 mg/ml”.

Question: What about the “time to 10% of potency loss” value ([6]; concentrated bulk solution) of the same substance?
Answer: The value was “about 1.3 hours”.

Question: What about the “onset of inhibition of platelet aggregation” value [7] of the same substance?
Answer: Its value is “approximately 40 minutes”.
